Values quoted from earlier work in publication PMC9851200, “Multiparameter phenotypic screening for endogenous TFEB and TFE3 translocation identifies novel chemical series modulating lysosome function” (Autophagy, 2022).

How the values were obtained:
Set-up in all cases: method as in original PKIS2 published data
[1] = target: kinases (KINOMEscan panel) (Homo sapiens, UniProt P54756); details: kinase EPHA5; Published KINOMEscan; ref original PKIS2 published data; cited from earlier work
[2] = target: kinases (KINOMEscan panel) (Homo sapiens, UniProt P36894); details: kinase BMPR1A; Published KINOMEscan; ref original PKIS2 published data; cited from earlier work
[3] = target: kinases (KINOMEscan panel) (Homo sapiens, UniProt Q7KZI7); details: MARK2; Published KINOMEscan; ref original PKIS2 published data; cited from earlier work
[4] = target: kinases (KINOMEscan panel) (Homo sapiens, UniProt P48736); details: kinase PIK3CG; Published KINOMEscan; ref original PKIS2 published data; cited from earlier work
[5] = target: T1, kinases (KINOMEscan panel) (Homo sapiens, UniProt O15197); details: kinase EPHB6; Published KINOMEscan; ref original PKIS2 published data; cited from earlier work
T1 sequence (O15197 32-1021): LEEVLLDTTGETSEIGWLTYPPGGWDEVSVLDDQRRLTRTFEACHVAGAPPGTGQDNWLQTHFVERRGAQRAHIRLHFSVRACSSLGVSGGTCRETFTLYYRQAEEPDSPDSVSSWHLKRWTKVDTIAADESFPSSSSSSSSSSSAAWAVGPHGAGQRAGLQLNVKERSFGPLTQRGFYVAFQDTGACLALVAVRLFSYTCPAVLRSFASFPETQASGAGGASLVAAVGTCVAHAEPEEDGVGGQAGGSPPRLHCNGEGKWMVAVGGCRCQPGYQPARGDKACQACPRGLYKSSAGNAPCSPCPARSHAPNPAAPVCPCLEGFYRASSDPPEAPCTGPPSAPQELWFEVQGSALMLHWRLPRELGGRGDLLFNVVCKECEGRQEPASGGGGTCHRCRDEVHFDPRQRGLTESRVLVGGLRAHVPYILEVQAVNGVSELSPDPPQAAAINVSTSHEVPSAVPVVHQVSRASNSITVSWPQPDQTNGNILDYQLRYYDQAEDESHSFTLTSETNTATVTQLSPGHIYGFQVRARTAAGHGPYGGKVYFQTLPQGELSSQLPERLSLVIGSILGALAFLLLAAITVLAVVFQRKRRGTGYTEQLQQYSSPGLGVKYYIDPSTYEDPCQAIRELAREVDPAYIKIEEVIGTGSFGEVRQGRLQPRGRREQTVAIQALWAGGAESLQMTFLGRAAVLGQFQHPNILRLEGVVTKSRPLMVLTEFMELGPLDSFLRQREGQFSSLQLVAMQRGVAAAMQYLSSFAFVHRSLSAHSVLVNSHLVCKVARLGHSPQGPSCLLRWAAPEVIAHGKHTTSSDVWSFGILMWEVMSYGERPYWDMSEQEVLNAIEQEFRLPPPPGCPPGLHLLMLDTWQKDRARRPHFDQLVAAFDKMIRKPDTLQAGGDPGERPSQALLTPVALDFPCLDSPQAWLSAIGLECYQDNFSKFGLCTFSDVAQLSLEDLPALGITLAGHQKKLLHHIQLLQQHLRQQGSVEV

[6] = target: T2, kinases (KINOMEscan panel) (Homo sapiens, UniProt Q9Y2U5); details: MAP3K2; Published KINOMEscan; ref original PKIS2 published data; cited from earlier work
T2 sequence (Q9Y2U5 1-619): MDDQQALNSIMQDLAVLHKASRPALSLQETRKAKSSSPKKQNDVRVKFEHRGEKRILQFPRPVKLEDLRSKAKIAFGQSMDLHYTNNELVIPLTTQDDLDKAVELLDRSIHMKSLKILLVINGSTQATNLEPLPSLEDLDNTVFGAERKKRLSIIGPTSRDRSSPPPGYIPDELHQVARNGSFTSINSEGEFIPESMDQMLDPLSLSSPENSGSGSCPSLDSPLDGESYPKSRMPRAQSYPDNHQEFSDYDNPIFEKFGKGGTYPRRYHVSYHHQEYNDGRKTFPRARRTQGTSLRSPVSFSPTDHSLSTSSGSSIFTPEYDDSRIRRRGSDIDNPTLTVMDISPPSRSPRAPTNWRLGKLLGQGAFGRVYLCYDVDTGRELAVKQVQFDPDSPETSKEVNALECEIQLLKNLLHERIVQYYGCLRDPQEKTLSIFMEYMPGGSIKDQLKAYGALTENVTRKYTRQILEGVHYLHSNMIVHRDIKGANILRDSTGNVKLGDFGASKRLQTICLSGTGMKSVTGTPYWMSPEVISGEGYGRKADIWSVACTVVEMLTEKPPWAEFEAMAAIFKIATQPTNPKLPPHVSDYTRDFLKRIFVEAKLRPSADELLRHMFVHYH

Sequence of kinases (KINOMEscan panel) (Homo sapiens, UniProt P48736) (P48736 whole entry): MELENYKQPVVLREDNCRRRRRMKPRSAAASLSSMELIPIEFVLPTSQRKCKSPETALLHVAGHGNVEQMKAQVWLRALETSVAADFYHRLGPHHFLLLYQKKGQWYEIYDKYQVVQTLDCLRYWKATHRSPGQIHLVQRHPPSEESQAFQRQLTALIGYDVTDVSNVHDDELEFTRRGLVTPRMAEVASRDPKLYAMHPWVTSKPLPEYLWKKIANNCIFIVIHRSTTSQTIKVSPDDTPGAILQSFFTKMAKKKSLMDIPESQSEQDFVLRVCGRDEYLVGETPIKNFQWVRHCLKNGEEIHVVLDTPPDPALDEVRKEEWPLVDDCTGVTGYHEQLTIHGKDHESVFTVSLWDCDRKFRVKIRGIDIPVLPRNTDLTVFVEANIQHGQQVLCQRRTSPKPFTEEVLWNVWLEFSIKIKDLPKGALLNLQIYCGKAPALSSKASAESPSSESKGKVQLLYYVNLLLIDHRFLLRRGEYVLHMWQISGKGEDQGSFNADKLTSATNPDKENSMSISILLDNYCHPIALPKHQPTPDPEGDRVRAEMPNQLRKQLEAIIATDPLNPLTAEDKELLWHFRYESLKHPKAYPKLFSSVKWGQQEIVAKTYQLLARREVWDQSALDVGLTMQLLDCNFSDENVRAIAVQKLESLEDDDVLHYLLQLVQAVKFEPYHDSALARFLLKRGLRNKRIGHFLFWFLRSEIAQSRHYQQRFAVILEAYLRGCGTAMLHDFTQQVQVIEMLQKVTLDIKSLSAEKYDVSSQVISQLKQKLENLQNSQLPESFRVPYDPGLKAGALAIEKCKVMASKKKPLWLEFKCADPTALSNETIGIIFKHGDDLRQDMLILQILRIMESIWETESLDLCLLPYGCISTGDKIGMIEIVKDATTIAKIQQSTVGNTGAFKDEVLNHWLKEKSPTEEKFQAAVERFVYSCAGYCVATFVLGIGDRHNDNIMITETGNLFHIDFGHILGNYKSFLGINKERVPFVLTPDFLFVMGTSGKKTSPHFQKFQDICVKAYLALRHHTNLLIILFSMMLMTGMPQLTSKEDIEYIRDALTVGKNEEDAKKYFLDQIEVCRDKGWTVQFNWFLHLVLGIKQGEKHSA
Sequence of kinases (KINOMEscan panel) (Homo sapiens, UniProt P54756) (P54756 25-1037): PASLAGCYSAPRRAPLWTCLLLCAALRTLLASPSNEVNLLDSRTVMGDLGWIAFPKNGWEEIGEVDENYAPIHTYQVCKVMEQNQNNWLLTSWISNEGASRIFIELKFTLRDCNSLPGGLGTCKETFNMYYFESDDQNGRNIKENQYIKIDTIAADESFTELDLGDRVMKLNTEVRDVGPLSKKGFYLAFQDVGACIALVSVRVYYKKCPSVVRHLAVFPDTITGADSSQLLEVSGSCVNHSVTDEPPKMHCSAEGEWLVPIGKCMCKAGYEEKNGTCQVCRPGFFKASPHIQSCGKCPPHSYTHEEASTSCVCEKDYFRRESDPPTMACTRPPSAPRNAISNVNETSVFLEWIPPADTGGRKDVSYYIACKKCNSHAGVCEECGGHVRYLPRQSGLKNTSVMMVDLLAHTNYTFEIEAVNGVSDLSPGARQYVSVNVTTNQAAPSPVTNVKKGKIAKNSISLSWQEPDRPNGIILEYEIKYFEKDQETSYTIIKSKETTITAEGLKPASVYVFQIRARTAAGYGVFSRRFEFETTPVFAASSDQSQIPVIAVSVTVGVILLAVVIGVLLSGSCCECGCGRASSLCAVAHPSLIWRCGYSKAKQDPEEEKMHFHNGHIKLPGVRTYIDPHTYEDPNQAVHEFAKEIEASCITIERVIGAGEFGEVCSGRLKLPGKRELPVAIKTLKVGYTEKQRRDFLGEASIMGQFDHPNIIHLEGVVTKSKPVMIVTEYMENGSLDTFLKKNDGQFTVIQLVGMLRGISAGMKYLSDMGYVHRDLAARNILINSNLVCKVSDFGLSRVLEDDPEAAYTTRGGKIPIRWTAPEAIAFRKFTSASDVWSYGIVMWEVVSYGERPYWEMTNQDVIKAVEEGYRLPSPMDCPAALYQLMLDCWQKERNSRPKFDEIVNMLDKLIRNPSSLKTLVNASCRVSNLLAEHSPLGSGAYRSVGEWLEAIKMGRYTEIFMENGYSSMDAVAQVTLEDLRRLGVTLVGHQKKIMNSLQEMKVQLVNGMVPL
Sequence of kinases (KINOMEscan panel) (Homo sapiens, UniProt P36894) (P36894 24-532): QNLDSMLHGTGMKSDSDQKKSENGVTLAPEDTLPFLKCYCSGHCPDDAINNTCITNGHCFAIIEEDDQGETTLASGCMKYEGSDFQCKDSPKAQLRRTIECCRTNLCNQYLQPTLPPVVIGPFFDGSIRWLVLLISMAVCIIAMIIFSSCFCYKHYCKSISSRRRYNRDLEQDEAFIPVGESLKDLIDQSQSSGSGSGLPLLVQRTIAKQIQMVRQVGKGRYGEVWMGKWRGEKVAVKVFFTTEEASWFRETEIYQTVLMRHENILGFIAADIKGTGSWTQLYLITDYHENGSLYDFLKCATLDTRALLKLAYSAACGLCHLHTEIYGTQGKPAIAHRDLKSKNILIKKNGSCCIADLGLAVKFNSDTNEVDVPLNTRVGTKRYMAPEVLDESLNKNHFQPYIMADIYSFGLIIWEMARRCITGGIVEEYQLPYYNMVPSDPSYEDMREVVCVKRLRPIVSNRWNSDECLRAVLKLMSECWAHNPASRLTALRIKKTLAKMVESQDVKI
Sequence of kinases (KINOMEscan panel) (Homo sapiens, UniProt Q7KZI7) (Q7KZI7 whole entry): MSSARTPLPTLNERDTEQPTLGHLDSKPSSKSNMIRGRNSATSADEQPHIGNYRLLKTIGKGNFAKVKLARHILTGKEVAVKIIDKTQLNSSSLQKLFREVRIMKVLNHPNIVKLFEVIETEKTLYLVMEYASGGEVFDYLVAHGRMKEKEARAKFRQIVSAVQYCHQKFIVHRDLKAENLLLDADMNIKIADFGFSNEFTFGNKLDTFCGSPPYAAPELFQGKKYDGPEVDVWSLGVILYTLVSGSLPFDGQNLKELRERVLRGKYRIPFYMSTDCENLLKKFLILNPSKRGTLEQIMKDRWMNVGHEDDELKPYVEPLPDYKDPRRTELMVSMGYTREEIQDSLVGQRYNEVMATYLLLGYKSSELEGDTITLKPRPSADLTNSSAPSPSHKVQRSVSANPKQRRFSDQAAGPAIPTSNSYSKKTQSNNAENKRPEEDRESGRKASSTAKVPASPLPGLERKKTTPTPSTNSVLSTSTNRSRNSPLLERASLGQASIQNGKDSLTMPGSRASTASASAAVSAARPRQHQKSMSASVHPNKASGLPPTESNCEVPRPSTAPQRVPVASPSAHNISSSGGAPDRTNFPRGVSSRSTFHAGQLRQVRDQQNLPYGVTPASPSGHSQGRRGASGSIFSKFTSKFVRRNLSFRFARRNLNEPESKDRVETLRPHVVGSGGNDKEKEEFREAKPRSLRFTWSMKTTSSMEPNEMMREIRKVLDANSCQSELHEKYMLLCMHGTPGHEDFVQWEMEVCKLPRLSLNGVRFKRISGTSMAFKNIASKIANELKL

Cc1cccc(-c2nc(Nc3ccncc3)c3ccccc3n2)n1 [NK215]
0: KINOMEscan EPHA5 [1] | KINOMEscan BMPR1A [2] | KINOMEscan MARK2 [3] | KINOMEscan PIK3CG [4] | KINOMEscan EPHB6 [5] | KINOMEscan MAP3K2 [6]
